# Measurements as given in patent US12054466B2, “Compounds for the treatment of clostridium difficile infection” (University of Notre Dame du Lac, priority 2016, dated 2024).
# Where two headings read alike, the source gives them in different places.
# Tests used:
# Assay type in all cases: cell-based
# C. difficile ATCC43598 = assay: MIC, broth microdilution; conditions: Clostridioides difficile, C. difficile ATCC43598
# C. difficile ATCC43255 = assay: MIC, broth microdilution; conditions: Clostridioides difficile, C. difficile ATCC43255
# C. difficile BAA-1870 = assay: MIC, broth microdilution; conditions: Clostridioides difficile, BAA1870, C. difficile BAA-1870 (NAP1, ribotype 27)
# C. difficile BAA-1804 = assay: MIC, broth microdilution; conditions: Clostridioides difficile, BAA1804, C. difficile BAA-1804
# C. difficile BAA-1803 = assay: MIC, broth microdilution; conditions: Clostridioides difficile, BAA1803, C. difficile BAA-1803 (NAP1, ribotype 027)
# C. difficile BAA-1801 = assay: MIC, broth microdilution; conditions: Clostridioides difficile, BAA1801, C. difficile BAA-1801 (nontoxigenic)
# C. difficile BAA-1812 = assay: MIC, broth microdilution; conditions: Clostridioides difficile, BAA1812, C. difficile BAA-1812
# C. difficile BAA-1814 = assay: MIC, broth microdilution; conditions: Clostridioides difficile, BAA1814, C. difficile BAA-1814
# C. difficile NR49310 = assay: MIC, broth microdilution; conditions: Clostridioides difficile, C. difficile NR49310 (NAP7, ribotype 078)
# C. difficile NR49294 = assay: MIC, broth microdilution; conditions: Clostridioides difficile, C. difficile NR49294 (NAP4, ribotype 014)
# C. difficile NR49305 = assay: MIC, broth microdilution; conditions: Clostridioides difficile, C. difficile NR49305 (NAP6, ribotype 002)
# C. difficile NR49318 = assay: MIC, broth microdilution; conditions: Clostridioides difficile, C. difficile NR49318 (NAP11, ribotype 106)
# C. difficile NR49292 = assay: MIC, broth microdilution; conditions: Clostridioides difficile, C. difficile NR49292 (NAP2, ribotype 001_072)
# C. difficile NR49302 = assay: MIC, broth microdilution; conditions: Clostridioides difficile, C. difficile NR49302 (NAP4, ribotype 020)
# [1] = test system: Bacteroides fragilis HM-709; assay: MIC against common gut bacteria; conditions: HM709; Bacteroides fragilis HM-709; read-out: MIC
# Bacteroides fragilis = assay: MIC against common gut bacteria; conditions: read-out: MIC
# Bacteroides ovatus = assay: MIC against common gut bacteria; conditions: read-out: MIC
# Bacteroides vulgatus = assay: MIC against common gut bacteria; conditions: Phocaeicola vulgatus; Bacteroides vulgatus; read-out: MIC
# Bacteroides eggerthii = assay: MIC against common gut bacteria; conditions: read-out: MIC
# Bacteroides caccae = assay: MIC against common gut bacteria; conditions: read-out: MIC
# [2] = test system: Bifidobacterium longum HM-846; assay: MIC against common gut bacteria; conditions: HM846; Bifidobacterium longum HM-846; read-out: MIC
# [3] = test system: Corynebacterium sp. HM-784; assay: MIC against common gut bacteria; conditions: SP.HM784; Corynebacterium sp. HM-784; incubated aerobically; read-out: MIC
# Procedure: Minimally-inhibitory concentrations. MICs for C. difficile strains and the common gut bacteria were determined using broth microdilution techniques as reported earlier using brucella broth supplemented with hemin and vitamin K or supplemented BHIS broth (Babakhani et al., J Antimicrob Chemother 2013, 68(3), 515). Lactobacillus MRS broth was used for lactobacillus strains. […] All incubations unless specified otherwise were carried out at 24 or 48 h at 37° C. in an anaerobic chamber (Whitley DG250 workstation, Microbiology International, Frederick, MD). Corynebacterium and lactobacillus species were incubated aerobically.
# [4] = test system: Fusobacterium nucleatum HM-992; assay: MIC against common gut bacteria; conditions: HM992; Fusobacterium nucleatum HM-992; read-out: MIC
# [5] = test system: Lactobacillus reuteri HM-102; assay: MIC against common gut bacteria; conditions: for MIC: Limosilactobacillus reuteri, HM102, Lactobacillus reuteri HM-102, read-out: MIC; for Activity against Lactobacillus reuteri: in words
# [6] = test system: Lactobacillus gasseri HM-644; assay: MIC against common gut bacteria; conditions: for MIC: HM644, Lactobacillus gasseri HM-644, read-out: MIC; for Activity against Lactobacillus gasseri: in words
# Veillonella sp. HM-49 = assay: MIC against common gut bacteria; conditions: for MIC: SP.HM49, Veillonella sp. HM-49, read-out: MIC; for Activity against Veillonella sp.: in words
# Eubacterium sp. HM-178 = assay: MIC against common gut bacteria; conditions: SP.HM178
structure (smiles),measurement,setting,value
FC(F)(F)c1ccc(Oc2ccc(-c3noc(-c4ccc5[nH]ccc5c4)n3)cc2)cc1 [Compound 1],MIC,"C. difficile ATCC43598; 24 h, read-out: MIC at 24 h",1 µg/mL
same,MIC,"C. difficile ATCC43598; 48 h, read-out: MIC at 48 h",1 µg/mL
same,MIC,"C. difficile ATCC43255; 24 h, read-out: MIC at 24 h",2 µg/mL
same,MIC,"C. difficile ATCC43255; 48 h, read-out: MIC at 48 h",2 µg/mL
same,MIC,"C. difficile BAA-1870; 24 h, read-out: MIC at 24 h",2 µg/mL
same,MIC,"C. difficile BAA-1870; 48 h, read-out: MIC at 48 h",4 µg/mL
same,MIC,"C. difficile BAA-1804; 24 h, read-out: MIC at 24 h",2 µg/mL
same,MIC,"C. difficile BAA-1804; 48 h, read-out: MIC at 48 h",2 µg/mL
same,MIC,"C. difficile BAA-1803; 24 h, read-out: MIC at 24 h",1 µg/mL
same,MIC,"C. difficile BAA-1803; 48 h, read-out: MIC at 48 h",2 µg/mL
same,MIC,"C. difficile BAA-1801; 24 h, read-out: MIC at 24 h",2 µg/mL
same,MIC,"C. difficile BAA-1801; 48 h, read-out: MIC at 48 h",4 µg/mL
same,MIC,"C. difficile BAA-1812; 24 h, read-out: MIC at 24 h",2 µg/mL
same,MIC,"C. difficile BAA-1812; 48 h, read-out: MIC at 48 h",2 µg/mL
same,MIC,"C. difficile BAA-1814; 24 h, read-out: MIC at 24 h",2 µg/mL
same,MIC,"C. difficile BAA-1814; 48 h, read-out: MIC at 48 h",4 µg/mL
same,MIC,"C. difficile NR49310; 24 h, read-out: MIC at 24 h",2 µg/mL
same,MIC,"C. difficile NR49310; 48 h, read-out: MIC at 48 h",2 µg/mL
same,MIC,"C. difficile NR49294; 24 h, read-out: MIC at 24 h",1 µg/mL
same,MIC,"C. difficile NR49294; 48 h, read-out: MIC at 48 h",1 µg/mL
same,MIC,"C. difficile NR49305; 24 h, read-out: MIC at 24 h",2 µg/mL
same,MIC,"C. difficile NR49305; 48 h, read-out: MIC at 48 h",4 µg/mL
same,MIC,"C. difficile NR49318; 24 h, read-out: MIC at 24 h",2 µg/mL
same,MIC,"C. difficile NR49318; 48 h, read-out: MIC at 48 h",2 µg/mL
same,MIC,"C. difficile NR49292; 24 h, read-out: MIC at 24 h",1 µg/mL
same,MIC,"C. difficile NR49292; 48 h, read-out: MIC at 48 h",2 µg/mL
same,MIC,"C. difficile NR49302; 24 h, read-out: MIC at 24 h",1 µg/mL
same,MIC,"C. difficile NR49302; 48 h, read-out: MIC at 48 h",2 µg/mL
same,MIC,[1],2 µg/mL
same,MIC,Bacteroides fragilis,4 µg/mL
same,MIC,Bacteroides ovatus,4 µg/mL
same,MIC,Bacteroides vulgatus,2 µg/mL
same,MIC,Bacteroides eggerthii,2 µg/mL
same,MIC,Bacteroides caccae,4 µg/mL
same,MIC,[2],0.2 µg/mL
same,MIC,[3],2 µg/mL
same,MIC,[4],1 µg/mL
same,MIC,[5],> 12 µg/mL
same,Activity against Lactobacillus reuteri,[5],not active
same,MIC,[6],> 12 µg/mL
same,Activity against Lactobacillus gasseri,[6],not active
same,MIC,Veillonella sp. HM-49,> 12 µg/mL
same,Activity against Veillonella sp.,Veillonella sp. HM-49,not active
same,MIC,Eubacterium sp. HM-178,2 µg/mL
Oc1ccc(-c2nc(-c3ccc(OC4CCCC4)cc3)no2)cc1 [Compound 2],MIC,"C. difficile ATCC43598; 24 h, read-out: MIC at 24 h",1 µg/mL
same,MIC,"C. difficile ATCC43598; 48 h, read-out: MIC at 48 h",2 µg/mL
same,MIC,"C. difficile ATCC43255; 24 h, read-out: MIC at 24 h",2 µg/mL
same,MIC,"C. difficile ATCC43255; 48 h, read-out: MIC at 48 h",2 µg/mL
same,MIC,"C. difficile BAA-1870; 24 h, read-out: MIC at 24 h",2 µg/mL
same,MIC,"C. difficile BAA-1870; 48 h, read-out: MIC at 48 h",2 µg/mL
same,MIC,"C. difficile BAA-1804; 24 h, read-out: MIC at 24 h",2 µg/mL
same,MIC,"C. difficile BAA-1804; 48 h, read-out: MIC at 48 h",2 µg/mL
same,MIC,"C. difficile BAA-1803; 24 h, read-out: MIC at 24 h",1 µg/mL
same,MIC,"C. difficile BAA-1803; 48 h, read-out: MIC at 48 h",2 µg/mL
same,MIC,"C. difficile BAA-1801; 24 h, read-out: MIC at 24 h",2 µg/mL
same,MIC,"C. difficile BAA-1801; 48 h, read-out: MIC at 48 h",2 µg/mL
same,MIC,"C. difficile BAA-1812; 24 h, read-out: MIC at 24 h",2 µg/mL
same,MIC,"C. difficile BAA-1812; 48 h, read-out: MIC at 48 h",2 µg/mL
same,MIC,"C. difficile BAA-1814; 24 h, read-out: MIC at 24 h",2 µg/mL
same,MIC,"C. difficile BAA-1814; 48 h, read-out: MIC at 48 h",2 µg/mL
same,MIC,"C. difficile NR49310; 24 h, read-out: MIC at 24 h",2 µg/mL
same,MIC,"C. difficile NR49310; 48 h, read-out: MIC at 48 h",4 µg/mL
same,MIC,"C. difficile NR49294; 24 h, read-out: MIC at 24 h",1 µg/mL
same,MIC,"C. difficile NR49294; 48 h, read-out: MIC at 48 h",2 µg/mL
same,MIC,"C. difficile NR49305; 24 h, read-out: MIC at 24 h",2 µg/mL
same,MIC,"C. difficile NR49305; 48 h, read-out: MIC at 48 h",2 µg/mL
same,MIC,"C. difficile NR49318; 24 h, read-out: MIC at 24 h",2 µg/mL
same,MIC,"C. difficile NR49318; 48 h, read-out: MIC at 48 h",4 µg/mL
same,MIC,"C. difficile NR49292; 24 h, read-out: MIC at 24 h",1 µg/mL
same,MIC,"C. difficile NR49292; 48 h, read-out: MIC at 48 h",2 µg/mL
same,MIC,"C. difficile NR49302; 24 h, read-out: MIC at 24 h",2 µg/mL
same,MIC,"C. difficile NR49302; 48 h, read-out: MIC at 48 h",2 µg/mL
same,MIC,[1],1 µg/mL
same,MIC,Bacteroides fragilis,2 µg/mL
same,MIC,Bacteroides ovatus,2 µg/mL
same,MIC,Bacteroides vulgatus,2 µg/mL
same,MIC,Bacteroides eggerthii,1 µg/mL
same,MIC,Bacteroides caccae,2 µg/mL
same,MIC,[2],1 µg/mL
same,MIC,[3],0.5 µg/mL
same,MIC,[4],2 µg/mL
same,MIC,[5],> 128 µg/mL
same,Activity against Lactobacillus reuteri,[5],not active
same,MIC,[6],> 128 µg/mL
same,Activity against Lactobacillus gasseri,[6],not active
same,MIC,Veillonella sp. HM-49,> 128 µg/mL
same,Activity against Veillonella sp.,Veillonella sp. HM-49,not active
same,MIC,Eubacterium sp. HM-178,4 µg/mL
